Assay results taken from patent publication US5496823A, “Pharmaceutical composition for increasing bladder capacity” (Hoechst Japan Limited, priority 1991, dated 1996).

Tests used:
[1] = test system: urination-reflexing constriction of the bladder; experiment: urination-reflexing constriction of the bladder (cystometrogram) in anesthetized rats, intravenous administration; format: in vivo, SD male rats; details: for Bladder capacity, First / Bladder capacity, Second / Urination constriction pressure, First / Urination constriction pressure, Second / Urination threshold pressure, First / Urination threshold pressure, Second: relative level, pre-drug value = 1, mean ± SD
Text: (§1) Effects of test drugs on urination-reflexing constriction of the bladder in anesthetized rats were examined according to Morikawa, et al. [in Oyo Yakuri/Pharmacometrics, Vol. 37, No. 1, pages 27-37, (1989)]. In the following examples, the bladder capacity designates the time from a urination to the next urination (urination interval), urination threshold pressure designates intracystic pressure) immediately prior to initiation of urination constriction and urination constriction pressure designates maximum internal pressure on urination constriction. Figures in the below table indicate relative level from the first and second reactions after administration of a drug taking the measured value before administration of the drug as 1 for bladder capacity (min.), urination threshold pressure (mmHg) and urination constriction pressure (mmHg), respectively.
(§2) Groups of 4-6 SD male rats were used and each animal was subjected to laparotomy under anesthesia with urethan, ligature around the ureter and then exposure of the bladder, on the top of which was perforated with a small opening, through which a cannula with a three-way step cock was inserted.
(§3) One of the three-way stop cock was connected to a syringe for continuously introducing a physiological saline solution and another to a pressure transducer for the measurement of intrasystic pressure.
(§4) A physiological saline solution was introduced into the bladder at a rate of 55 μl per min., and changes in intracystic pressure were recorded until urination. From the intracystic pressure curve were determined bladder capacity, urination threshold pressure and urination constriction pressure to examine the action of the introduction of physiological saline solution.
The drug was given via a polyethylene tube inserted into the femoral vein. […]

[2] = Japanese Patent Publication No. 33120/1977; cited from earlier work
[3] = test system: urination-reflexing constriction of the bladder; experiment: urination-reflexing constriction of the bladder (cystometrogram) in anesthetized rats, intraduodenal administration; format: in vivo, SD male rats; details: relative level, pre-drug value = 1, mean ± SD
Text: as §1, §2, §3, §4
Groups of 4-5 SD male rats were fasted overnight and subjected to the same experimental procedures as in Example 1. The drug was given via a polyethylene tube inserted into the duodenum.

CCOCn1cnc2c1c(=O)n(CCCCC(C)(C)O)c(=O)n2C [Compound VI, 3,7-dihydro-3-methyl-1-(5-hydroxy-5-methylhexyl)-7-ethoxymethyl-1H-purine-2,6-dione]
Bladder capacity, First ([1]; Table 3, 20 mg/kg i.v., n=5): 1.8 ± 0.9 | Bladder capacity, Second ([1]; Table 3, 20 mg/kg i.v., n=5): 1.4 ± 1.0 | Urination constriction pressure, First ([1]; Table 3, 20 mg/kg i.v., n=5): 1.0 ± 0.1 | Urination constriction pressure, Second ([1]; Table 3, 20 mg/kg i.v., n=5): 1.0 ± 0.1 | Urination threshold pressure, First ([1]; Table 3, 20 mg/kg i.v., n=5): 1.3 ± 0.9 | Urination threshold pressure, Second ([1]; Table 3, 20 mg/kg i.v., n=5): 1.0 ± 0.4

CCCn1cnc2c1c(=O)n(CCCCC(C)=O)c(=O)n2C [propentofylline, 3,7-dihydro-3-methyl-1-(5-oxohexyl)-7-propyl-1H-purine-2,6-dione]
action on vertebral artery (in words) [2]: specifically active on vertebral artery | blood flow during cerebral circulation (in words) [2]: increase blood flow highly selectively during cerebral circulation | Bladder capacity, First ([1]; 0.2 mg/kg i.v., n=5): 1.2 ± 0.8 | Bladder capacity, Second ([1]; 0.2 mg/kg i.v., n=5): 1.1 ± 0.4 | Urination constriction pressure, First ([1]; 0.2 mg/kg i.v., n=5): 1.0 ± 0.1 | Urination constriction pressure, Second ([1]; 0.2 mg/kg i.v., n=5): 0.9 ± 0.1 | Urination threshold pressure, First ([1]; 0.2 mg/kg i.v., n=5): 1.2 ± 0.5 | Urination threshold pressure, Second ([1]; 0.2 mg/kg i.v., n=5): 1.0 ± 0.3 | Bladder capacity, First ([1]; 1 mg/kg i.v., n=5): 2.5 ± 1.9 | Bladder capacity, Second ([1]; 1 mg/kg i.v., n=5): 0.7 ± 0.2 | Urination constriction pressure, First ([1]; 1 mg/kg i.v., n=5): 1.0 ± 0.1 | Urination constriction pressure, Second ([1]; 1 mg/kg i.v., n=5): 1.1 ± 0.2 | Urination threshold pressure, First ([1]; 1 mg/kg i.v., n=5): 1.1 ± 0.1 | Urination threshold pressure, Second ([1]; 1 mg/kg i.v., n=5): 1.1 ± 0.2 | Bladder capacity, Second ([1]; 5 mg/kg i.v., n=6): 1.0 ± 0.5 | Urination constriction pressure, First ([1]; 5 mg/kg i.v., n=6): 1.0 ± 0.1 | Urination constriction pressure, Second ([1]; 5 mg/kg i.v., n=6): 1.0 ± 0.2 | Urination threshold pressure, First ([1]; 5 mg/kg i.v., n=6): 1.5 ± 0.4 | Urination threshold pressure, Second ([1]; 5 mg/kg i.v., n=6): 1.2 ± 0.6 | Bladder capacity, First ([1]; 5 mg/kg i.v., n=6, P < 0.05): 4.1 ± 2.6 | Bladder capacity, Second ([1]; 10 mg/kg i.v., n=5): 0.9 ± 0.5 | Urination constriction pressure, First ([1]; 10 mg/kg i.v., n=5): 1.0 ± 0.2 | Urination constriction pressure, Second ([1]; 10 mg/kg i.v., n=5): 1.0 ± 0.2 | Urination threshold pressure, Second ([1]; 10 mg/kg i.v., n=5): 1.1 ± 0.3 | Urination threshold pressure, First ([1]; 10 mg/kg i.v., n=5, P < 0.01): 2.1 ± 0.7 | Bladder capacity, First ([1]; 10 mg/kg i.v., n=5, P < 0.05): 3.5 ± 1.1 | Bladder capacity, Second ([1]; 20 mg/kg i.v., n=5): 1.0 ± 0.8 | Urination constriction pressure, First ([1]; 20 mg/kg i.v., n=5): 1.0 ± 0.1 | Urination constriction pressure, Second ([1]; 20 mg/kg i.v., n=5): 1.0 ± 0.1 | Urination threshold pressure, Second ([1]; 20 mg/kg i.v., n=5): 1.5 ± 0.8 | Urination threshold pressure, First ([1]; 20 mg/kg i.v., n=5, P < 0.01): 2.5 ± 0.8 | Bladder capacity, First ([1]; 20 mg/kg i.v., n=5, P < 0.05): 4.9 ± 3.2 | constrictive force of the bladder (in words) ([1]; animal experiments, summary): almost no influence upon constrictive force of the bladder | substantial bladder capacity / volume (in words) ([1]; animal experiments, summary): increased substantial bladder capacity | urination intervals (in words) ([1]; animal experiments, summary): prolonged urination intervals | urination threshold pressure (in words) ([1]; animal experiments, summary): increased urination threshold pressure | Bladder capacity, First ([3]; 3 mg/kg intraduodenal, n=4): 1.1 ± 0.2 | Bladder capacity, Second ([3]; 3 mg/kg intraduodenal, n=4): 1.1 ± 0.3 | Urination constriction pressure, First ([3]; 3 mg/kg intraduodenal, n=4): 1.1 ± 0.1 | Urination constriction pressure, Second ([3]; 3 mg/kg intraduodenal, n=4): 1.1 ± 0.2 | Urination threshold pressure, First ([3]; 3 mg/kg intraduodenal, n=4): 1.0 ± 0.2 | Urination threshold pressure, Second ([3]; 3 mg/kg intraduodenal, n=4): 1.0 ± 0.2 | Bladder capacity, First ([3]; 10 mg/kg intraduodenal, n=4): 2.7 ± 1.8 | Bladder capacity, Second ([3]; 10 mg/kg intraduodenal, n=4): 1.0 ± 1.0 | Urination constriction pressure, First ([3]; 10 mg/kg intraduodenal, n=4): 1.0 ± 0.1 | Urination constriction pressure, Second ([3]; 10 mg/kg intraduodenal, n=4): 0.9 ± 0.1 | Urination threshold pressure, First ([3]; 10 mg/kg intraduodenal, n=4): 1.3 ± 0.3 | Urination threshold pressure, Second ([3]; 10 mg/kg intraduodenal, n=4): 1.3 ± 0.5 | Bladder capacity, First ([3]; 30 mg/kg intraduodenal, n=5): 2.7 ± 1.6 | Bladder capacity, Second ([3]; 30 mg/kg intraduodenal, n=5): 0.8 ± 0.6 | Urination constriction pressure, First ([3]; 30 mg/kg intraduodenal, n=5): 0.9 ± 0.1 | Urination constriction pressure, Second ([3]; 30 mg/kg intraduodenal, n=5): 1.0 ± 0.1 | Urination threshold pressure, First ([3]; 30 mg/kg intraduodenal, n=5): 1.6 ± 0.9 | Urination threshold pressure, Second ([3]; 30 mg/kg intraduodenal, n=5): 1.4 ± 0.9 | Bladder capacity, Second ([3]; 50 mg/kg intraduodenal, n=5): 0.6 ± 0.2 | Urination constriction pressure, First ([3]; 50 mg/kg intraduodenal, n=5): 1.0 ± 0.1 | Urination constriction pressure, Second ([3]; 50 mg/kg intraduodenal, n=5): 1.0 | Urination threshold pressure, Second ([3]; 50 mg/kg intraduodenal, n=5): 1.4 ± 0.7 | Bladder capacity, First ([3]; 50 mg/kg intraduodenal, n=5, P < 0.01): 4.3 ± 2.1 | Urination threshold pressure, First ([3]; 50 mg/kg intraduodenal, n=5, P < 0.05): 1.7 ± 0.6
